Experimental data as given in patent US11772041B2, “Composite amine absorbent, and device and method for removing CO2 or H2S, or both of CO2 and H2S” (MITSUBISHI HEAVY INDUSTRIES, LTD., priority 2019, dated 2023).
Blank lines part the entries; values can stand above or below the compound they belong to.

Experiments:
[1] = Solubility in water of ether bond-containing compounds; type: physicochemical
Excerpt: The solubilities in water of the first ether bond-containing compound (propylene glycol monopropyl ether) in Test Example 1, the first ether bond-containing compound (dipropylene glycol monopropyl ether) in Test Example 7, and the ether bond-containing compound of the chemical formula I wherein R^2 has 4 (C4) or more carbon atoms (butylene glycol monobutyl ether) were compared.
The solubilities in water of the first ether bond-containing compound (propylene glycol monopropyl ether) in Test Example 1, the ether bond-containing compound (dipropylene glycol monopropyl ether) in Test Example 7, and the ether bond-containing compound of the chemical formula I wherein R^3 is an alkyl group (propylene glycol dibutyl ether) were compared.

[2] = Boiling point of ether bond-containing compounds; conditions: Table 5, Test Example 23; under atmospheric pressure

Solubility in water (% by weight) ([1]; Table 3, Test Example 21): About 1 % by weight
Structure (SMILES): CCCCOCCCCO [Butylene glycol monobutyl ether, butylene glycol monobutyl ether]

Structure (SMILES): COCCOC(C)=O [Ethylene glycol monomethyl ether acetate, ethylene glycol monomethyl ether acetate]
Boiling point (° c.) [2]: 143 ° c.

Solubility in water (% by weight) ([1]; Table 4, Test Example 22): Less than 1 % by weight
Structure (SMILES): CCCCOCC(C)OCCCC (stereo not drawn) [Propylene glycol dibutyl ether, propylene glycol dibutyl ether]
